Experimental data reported in US11725037B2, “Peptide dual agonists of GIPR and GLP2R” (University of Copenhagen, priority 2017, dated 2023).

How the values were obtained:
human GIP receptor = molecular target: T1, human GIP receptor (Homo sapiens, UniProt P48546); test: cAMP accumulation assay (HitHunter cAMP XS) in transiently transfected COS-7 cells expressing the human GIP receptor; assay type: cell-based; conditions: for Emax at 10 µM: COS-7, read-out: Emax (10 μM), GIP receptor; for EC50: logEC50, GIP receptor, log value, cAMP, COS-7
T1 construct: host or cells: COS-7 (transient, calcium phosphate; pCMV-Script vector)
T1 sequence (P48546 22-466): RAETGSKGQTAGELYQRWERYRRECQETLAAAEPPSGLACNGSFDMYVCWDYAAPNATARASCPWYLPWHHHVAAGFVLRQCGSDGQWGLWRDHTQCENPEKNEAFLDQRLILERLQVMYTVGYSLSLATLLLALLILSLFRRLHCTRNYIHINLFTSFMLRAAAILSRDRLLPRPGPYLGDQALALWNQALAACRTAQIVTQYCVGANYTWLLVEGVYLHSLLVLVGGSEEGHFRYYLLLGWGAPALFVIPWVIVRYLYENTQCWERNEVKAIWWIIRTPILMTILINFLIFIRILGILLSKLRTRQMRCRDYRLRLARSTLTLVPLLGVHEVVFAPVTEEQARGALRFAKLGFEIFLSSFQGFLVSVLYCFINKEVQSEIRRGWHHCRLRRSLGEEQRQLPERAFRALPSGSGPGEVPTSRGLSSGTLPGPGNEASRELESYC
Description: (§1) The day after, the cells were washed twice with Hepes buffered saline (HBS) buffer and incubated with HBS and 1 mM 3-isobutyl-1-methylxanthine (IBMX) for 30 min at 37° C. Ligands were added and incubated for 30 min at 37° C. The HitHunter™ cAMP XS assay (DiscoveRx) was carried out according to the manufacturer's instructions.

human GLP-2 receptor = molecular target: T2, human GLP-2 receptor (Homo sapiens, UniProt O95838); test: cAMP accumulation assay (HitHunter cAMP XS) in transiently transfected COS-7 cells expressing the human GLP-2 receptor; assay type: cell-based; conditions: for Emax at 10 µM: COS-7, read-out: Emax (10 μM), GLP-2 receptor; for logEC50, GLP-2 receptor: log value
T2 construct: host or cells: COS-7 (transient, calcium phosphate; pCMV-Script vector)
T2 sequence (O95838 1-553): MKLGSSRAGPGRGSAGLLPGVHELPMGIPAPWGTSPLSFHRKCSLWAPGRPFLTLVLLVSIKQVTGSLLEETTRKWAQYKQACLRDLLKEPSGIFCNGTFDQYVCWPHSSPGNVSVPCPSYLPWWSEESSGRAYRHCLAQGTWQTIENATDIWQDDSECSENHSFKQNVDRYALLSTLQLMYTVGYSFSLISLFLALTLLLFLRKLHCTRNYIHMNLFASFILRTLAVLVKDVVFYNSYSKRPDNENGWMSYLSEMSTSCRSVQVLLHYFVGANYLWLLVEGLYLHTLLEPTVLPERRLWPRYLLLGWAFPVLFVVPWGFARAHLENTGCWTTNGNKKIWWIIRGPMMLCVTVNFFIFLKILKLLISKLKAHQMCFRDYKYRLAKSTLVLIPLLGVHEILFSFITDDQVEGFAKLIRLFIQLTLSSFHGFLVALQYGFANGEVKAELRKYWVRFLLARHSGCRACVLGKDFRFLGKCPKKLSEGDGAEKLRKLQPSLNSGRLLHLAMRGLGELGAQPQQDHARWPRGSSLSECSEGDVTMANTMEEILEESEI
Description: as §1

[1] = tested on: mouse mesenchymal osteoblast precursor cell line KS483; test: Osteoblast differentiation assay: intracellular alkaline phosphatase activity (ALP) at day 8; assay type: cell-based; conditions: 1 μM, day 8, KS483 cells, mean±sem, n=6
Description: Aim: Testing the effects of 2 test compounds on differentiation and activity of osteoblasts in vitro in a preliminary set-up.
Method: One concentration of each test compound (1 μM) is tested. Effects on osteoblast differentiation are studied using a mouse mesenchymal osteoblast precursor cell line KS483. The cells are cultured on plastic surface in 96-well plates for 8 days, allowing them to differentiate into mature bone-forming osteoblasts. Baseline with vehicle • 1. Compound 3: Vehicle • 2. Compound 5: GIP-GLP-2 agonist 3 (SEQ ID NO:3) • 3. Compound 6: GIP-GLP-2 agonist 19 (SEQ ID NO:19)
In osteoblast differentiation assay: Intracellular alkaline phosphatase activity (ALP) at day 8 as an index of the number of mature osteoblasts formed.

[2] = tested on: bone resorption (serum C-terminal cross-linking telopeptide of type I collagen, CTX); test: Human study 1: bone resorption by serum CTX after subcutaneous injection of GIP or GLP-2; assay type: in vivo
Description: Method: Eight healthy young men were enrolled. […] Participants arrived in the morning (fasted overnight) and received the injection around 8.30 a.m. Blood samples were collected before (−25 and −10 min) and every 30 minutes after injection (30, 60, 90, 120, 180 and 240 min). After last participant's last visit, bone resorption was determined by measurements of serum C-terminal cross-linking telopeptide of type I collagen (CTX; IDS Immunodiagnostic Systems GmbH, Frankfurt am Main, Germany)

SMILES	Emax at 10 µM (human GIP receptor) [%]	potency (and efficacy) on the GIP receptor compared with native GIP, in words (human GIP receptor; Table 1)	fold (fold change of native GIP), GIP receptor (human GIP receptor; Table 1, EC50 relative to native GIP) [fold]	EC50 (human GIP receptor; Table 1) [nM]	Emax at 10 µM (human GLP-2 receptor) [%]	fold (fold change of native GLP-2), GLP-2 receptor (human GLP-2 receptor; Table 1, EC50 relative to native GLP-2) [fold]	EC50 (human GLP-2 receptor; logEC50, GLP-2 receptor, Table 1, cAMP, COS-7) [nM]	ALP activity compared to vehicle [1] [%]	potency and efficacy on the GLP-2R compared with native GLP-2, in words (human GLP-2 receptor; Table 1)	logEC50, GLP-2 receptor (human GLP-2 receptor; Table 1, cAMP, COS-7)	logEC50, GLP-2 receptor (human GLP-2 receptor; Table 2, cAMP, COS-7)	reduction in bone resorption (CTX) ([2]; 200 μg GIP and 800 μg GLP-2, each alone, s.c., restated in Example 4) [%]	bone resorption (CTX), maximum effect, % of base line ([2]; human GIP 200 μg s.c., healthy young men, 90 min after injection)
CC[C@H](C)[C@H](NC(=O)[C@H](Cc1ccccc1)NC(=O)[C@H](CC(=O)O)NC(=O)[C@H](CCCNC(=N)N)NC(=O)[C@H](C)NC(=O)[C@H](C)NC(=O)[C@H](CC(C)C)NC(=O)[C@H](CC(N)=O)NC(=O)[C@H](CC(=O)O)NC(=O)[C@H](CC(C)C)NC(=O)[C@@H](NC(=O)[C@@H](NC(=O)[C@H](CO)NC(=O)[C@H](Cc1ccc(O)cc1)NC(=O)[C@H](CC(=O)O)NC(=O)[C@H](CO)NC(=O)[C@@H](NC(=O)[C@H](Cc1ccccc1)NC(=O)[C@@H](NC(=O)CNC(=O)[C@H](CC(=O)O)NC(=O)[C@H](C)NC(=O)[C@@H](N)Cc1c[nH]cn1)[C@@H](C)O)[C@@H](C)CC)[C@@H](C)O)[C@@H](C)CC)C(=O)N[C@@H](CC(N)=O)C(=O)N[C@@H](Cc1c[nH]c2ccccc12)C(=O)N[C@@H](CC(C)C)C(=O)N[C@H](C(=O)N[C@@H](CCC(N)=O)C(=O)N[C@H](C(=O)N[C@@H](CCCCN)C(=O)N[C@H](C(=O)N[C@H](C(=O)N[C@@H](CC(=O)O)C(=O)O)[C@@H](C)O)[C@@H](C)CC)[C@@H](C)O)[C@@H](C)CC [Co-agonist 3]	100	same potency as native GIP(1-42)	1.2	0.107	100	18	21.4	112±5.6					
CC[C@H](C)[C@H](NC(=O)[C@H](Cc1ccccc1)NC(=O)[C@H](CC(=O)O)NC(=O)[C@H](CCCNC(=N)N)NC(=O)[C@H](C)NC(=O)[C@H](C)NC(=O)[C@H](CC(C)C)NC(=O)[C@H](CC(N)=O)NC(=O)[C@H](CC(=O)O)NC(=O)[C@H](CC(C)C)NC(=O)[C@@H](NC(=O)[C@@H](NC(=O)[C@H](CO)NC(=O)[C@H](Cc1ccc(O)cc1)NC(=O)[C@H](CC(=O)O)NC(=O)[C@H](CO)NC(=O)[C@@H](NC(=O)[C@H](Cc1ccccc1)NC(=O)[C@@H](NC(=O)CNC(=O)[C@H](CC(=O)O)NC(=O)[C@H](C)NC(=O)[C@@H](N)Cc1c[nH]cn1)[C@@H](C)O)[C@@H](C)CC)[C@@H](C)O)[C@@H](C)CC)C(=O)N[C@@H](CC(N)=O)C(=O)N[C@@H](Cc1c[nH]c2ccccc12)C(=O)N[C@@H](CC(C)C)C(=O)N[C@H](C(=O)N[C@@H](CCC(N)=O)C(=O)N[C@H](C(=O)N[C@@H](CCCCN)C(=O)NCC(=O)N[C@@H](CCCCN)C(=O)N[C@@H](CCCCN)C(=O)O)[C@@H](C)O)[C@@H](C)CC [Co-agonist 19]	93	almost the same potency and efficacy		0.251	91			115±8.9	almost the same potency and efficacy				
CC[C@H](C)[C@H](NC(=O)[C@H](CO)NC(=O)[C@H](Cc1ccc(O)cc1)NC(=O)[C@H](CC(=O)O)NC(=O)[C@H](CO)NC(=O)[C@@H](NC(=O)[C@H](Cc1ccccc1)NC(=O)[C@@H](NC(=O)CNC(=O)[C@H](CCC(=O)O)NC(=O)[C@H](C)NC(=O)[C@@H](N)Cc1ccc(O)cc1)[C@@H](C)O)[C@@H](C)CC)C(=O)N[C@@H](C)C(=O)N[C@@H](CCSC)C(=O)N[C@@H](CC(=O)O)C(=O)N[C@@H](CCCCN)C(=O)N[C@H](C(=O)N[C@@H](Cc1c[nH]cn1)C(=O)N[C@@H](CCC(N)=O)C(=O)N[C@@H](CCC(N)=O)C(=O)N[C@@H](CC(=O)O)C(=O)N[C@@H](Cc1ccccc1)C(=O)N[C@H](C(=O)N[C@@H](CC(N)=O)C(=O)N[C@@H](Cc1c[nH]c2ccccc12)C(=O)N[C@@H](CC(C)C)C(=O)N[C@@H](CC(C)C)C(=O)N[C@@H](C)C(=O)N[C@@H](CCC(N)=O)C(=O)N[C@@H](CCCCN)C(=O)NCC(=O)N[C@@H](CCCCN)C(=O)N[C@@H](CCCCN)C(=O)N[C@@H](CC(N)=O)C(=O)N[C@@H](CC(=O)O)C(=O)N[C@@H](Cc1c[nH]c2ccccc12)C(=O)N[C@@H](CCCCN)C(=O)N[C@@H](Cc1c[nH]cn1)C(=O)N[C@@H](CC(N)=O)C(=O)N[C@H](C(=O)N[C@H](C(=O)N[C@@H](CCC(N)=O)C(=O)O)[C@@H](C)O)[C@@H](C)CC)C(C)C)[C@@H](C)CC [GIP, reference compound]										no activation	no activation	~50	56.2±11.2 % of base line
